Earlier results in patent publication US6743448B2 (priority 2000, dated 2004).

Key:
IGF-I mRNA = settings: relative to hypophysectomized control animals
prostatic cells = settings: 1 nM for 2-7 days
[1] = test system: formation of DHT and androstenedione; settings: 14C-testosterone as substrate, effective inhibitory concentrations, n 4, p<0.001

Structure (SMILES): C[C@]12CCC(=O)C[C@@H]1CC[C@@H]1[C@@H]2CC[C@]2(C)[C@@H](O)CC[C@@H]12 [DHT, dihydrotestosterone]
- Increase of the IGF-I mRNA level (IGF-I mRNA): 40 times

Structure (SMILES): COc1ccc2[nH]cc(CCNC(C)=O)c2c1 [Melatonin, melatonin]
- Effect on cell growth (prostatic cells): inhibit cell growth

Structure (SMILES): CC(=O)[C@H]1CC[C@H]2[C@@H]3CCC4=CC(=O)CC[C@]4(C)[C@H]3CC[C@]12C [Progesterone, progesterone]
- Inhibition of the formation of DHT [1]: 10 fold
- Inhibition of the formation of androstenedione [1]: 3-5 fold

Structure (SMILES): C[C@]12CC[C@H]3[C@@H](CCC4=CC(=O)CC[C@@]43C)[C@@H]1CC[C@@H]2O [Testosterone, (17)-17-Hydroxyandrost-4-en-3-one]
- Increase of the IGF-I mRNA level (IGF-I mRNA): 30 times
